Where two headings read alike, the source gives them in different places.
Key:
[1] = biological target: T1, HIV-1 protease (Q7S) (Human immunodeficiency virus type 1 group M subtype B, UniProt P04585, Q495S); experiment: HIV-1 Protease RET Assay; type: biochemical
T1 construct: made in house
Experimental: Ki's for the inhibitors of HIV-1 protease were determined using a resonance energy transfer (RET) assay. […] This enzyme is first partially purified as inclusion bodies from cell lysate. It is then solublized in 8M urea and passed through a Q-Sepharose column (Pharmacia) for further purification. To refold this protein, samples containing Q7S is dialyzed into 50 mM sodium phosphate pH 7.0, 50 mM NaCl, 10 mM DTT, and 10% glycerol.
The commercially available peptide substrate (Molecular Probes Cat. # H-2930) RE(EDANS)SQNYPIVQK(DABCYL)R is used to assess activity and Ki's. This peptide is cleaved quantitatively by HIV-1 Pr at the Tyr-Pro bond. The EDANS fluorophore absorbs at 340 nm and emits at 490 nm. The reaction is carried out in a 96 well plate in a total volume of 100 μL and is run for 12 minutes at 37 C under steady-state conditions with 5 μM substrate and 2 nM active dimer enzyme concentration. The literature value Km for this substrate and enzyme is 103+/−8 μM (See Matayoshi, et al., “Novel Fluorogenic Substrates for Assaying Retroviral Proteases by Resonance Energy Transfer,” Science 247, 954 (1990)). The buffer for this reaction is 0.1M sodium acetate pH 4.8, 1M NaCl, 1 mM EDTA, 5 mM dithiothreitol, 10% dimethyl sulfoxide and 1 mg/ml bovine serum albumin. Inhibition curves are fit using the Morrison tight binding equation.

[2] = tested on: HIV-1; experiment: Cytopathic Effect (CPE) Inhibition Assay (XTT dye reduction); type: cell-based
Experimental: T-cell lines, CEM-SS, and MT-2, and viruses HIV-1 RF and HIV-1 NL4–3 (pNL4–3) were obtained from the National Institutes of Health (AIDS Research and Reference Reagent Program, Bethesda, Md.).
The ability of compounds to protect cells against HIV infection was measured by the […] dye reduction method, essentially as described (See Pauwels, R. Balzarini, J. Baba, M. Snoeck, R. Schols, D. Herdewijn, P. Desmyter, J. and De Clercq, E. 1988, “Rapid and automated tetrazolium-based colorimetric assay for the detection of anti-HIV compounds,”. J Virol Methods., 20: 309–321 and Weislow, O. S. Kiser, R. Fine, D. L. Bader, J. Shoemaker, R. H. and Boyd, M. R. 1989. “New soluble-formazan assay for HIV-1 cytopathic effects: application to high-flux screening of synthetic and natural products for AIDS-antiviral activity”. J. Natl. Cancer Inst. 81:577–586). Subject cells were infected with test virus at an moi of 0.025 to 0.819 or mock infected with medium only and added at 2×10^4 cells per well into 96 well plates containing half-log dilutions of test compounds. Six days later, 50 μl of XTT (1 mg/ml XTT tetrazolium, […] phenazine methosulfate) was added to the wells and the plate was reincubated for four hours. Viability, as determined by the amount of XTT formazan produced, was quantified spectrophotometrically by absorbance at 450 nm. Data from CPE assays were expressed as the percent of formazan produced in compound-treated cells compared to formazan produced in wells of uninfected, compound-free cells. The fifty percent effective concentration (EC50) was calculated as the concentration of compound that effected an increase in the percentage of formazan production in infected, compound-treated cells to 50% of that produced by uninfected, compound-free cells. The 50% cytotoxicity concentration (CC50) was calculated as the concentration of compound that decreased the percentage of formazan produced in uninfected, compound-treated cells to 50% of that produced in uninfected, compound-free cells. The therapeutic index was calculated by dividing the cytotoxicity (CC50) by the antiviral activity (EC50).

[3] = Ki, table of drawn compounds, unit inferred
[4] = Ave. Ki (nM), RET assay, Q7S enzyme, pH 4.8, 37 C
[5] = Human immunodeficiency virus 1, 144 h, read-out: Ave CPE EC50 (mM)

SMILES | Ki [1, 3] [nM] | EC50 ([2]; Human immunodeficiency virus 1) [nM] | Ki [1, 4] [nM] | EC50 [2, 5] [nM]
C#CCNC(=O)[C@H]1N(C(=O)[C@@H](O)[C@H](Cc2ccccc2)NC(=O)[C@@H]2CCCO2)CSC1(C)C | 16.8 | 3740 | – | –
Cc1ccccc1CNC(=O)[C@H]1N(C(=O)[C@@H](O)[C@H](Cc2ccccc2)NC(=O)c2cccc(N)n2)CSC1(C)C [Example B40, 6-Amino-pyridine-2-carboxylic acid {(1S,2S)-1-benzyl-3-[(R)-5,5-dimethyl-4-(2-methyl-benzylcarbamoyl)-thiazolidin-3-yl]-2-hydroxy-3-oxo-propyl}-amide] | – | – | 2.8 | 1400
CCCNC(=O)[C@H]1N(C(=O)[C@@H](O)[C@H](Cc2ccccc2)NC(=O)c2ccccc2C)CSC1(C)C [Example B30, (R)-3-{(2S,3S)-2-Hydroxy-4-phenyl-3-[(1-o-tolyl-methanoyl)-amino]-butanoyl}-5,5-dimethyl-thiazolidine-4-carboxylic acid propylamide] | – | – | 1.1 | 1230
Cc1cc(Cl)ccc1CNC(=O)[C@H]1N(C(=O)[C@@H](O)[C@H](Cc2ccccc2)NC(=O)c2cccc(O)c2C)CSC1(C)C | 0.26 | 207 | – | –
CCC/C=C/CNC(=O)[C@H]1N(C(=O)[C@@H](O)[C@H](Cc2ccccc2)NC(=O)c2cccc(O)c2C)CSC1(C)C | 2.6 | 1420 | – | –
Cc1c(O)cccc1C(=O)N[C@@H](Cc1ccccc1)[C@H](O)C(=O)N1CSC(C)(C)[C@H]1C(=O)NCCC(C)(C)C | 4.7 | 1060 | – | –
Cc1c(O)cccc1C(=O)N[C@@H](Cc1ccccc1)[C@H](O)C(=O)N1CSC(C)(C)[C@H]1C(=O)NC(C)(C)C#N [Example A41, (R)-3-((2S,3S)-2-Hydroxy-3-{[1-(3-hydroxy-2-methyl-phenyl)-methanoyl]-amino}-4-phenyl-butanoyl)-5,5-dimethyl-thiazolidine-4-carboxylic acid (1-cyano-1,1-dimethyl-methyl)-amide] | – | – | 1.6 | 527
Cn1cccc1C(=O)N[C@@H](Cc1ccccc1)[C@H](O)C(=O)N1CSC(C)(C)[C@H]1C(=O)NCc1c(F)cccc1F [Example B24, 3-{2-Hydroxy-3-[(1-methyl-1H-pyrrole-2-carbonyl)-amino]-4-phenyl-butyryl}-5,5-dimethyl-thiazolidine-4-carboxylic acid 2,6-difluoro-benzylamide] | – | – | 5.5 | 2320
Cn1cccc1C(=O)N[C@@H](Cc1ccccc1)[C@H](O)C(=O)N1CSC(C)(C)[C@H]1C(=O)NCc1ccccc1Cl [Example B22, 3-{2-Hydroxy-3-[(1-methyl-1H-pyrrole-2-carbonyl)-amino]-4-phenyl-butyryl}-5,5-dimethyl-thiazolidine-4-carboxylic acid 2-chloro-benzylamide] | – | – | 1.8 | 1610
Cc1ccccc1CNC(=O)[C@H]1N(C(=O)[C@@H](O)[C@H](Cc2ccccc2)NC(=O)c2csc(N)n2)CSC1(C)C | 2.3 | 1380 | – | –
Cc1c(O)cccc1C(=O)N[C@@H](Cc1ccccc1)[C@H](O)C(=O)N1CSC(C)(C)[C@H]1C(=O)NCc1cc(F)cc(F)c1 | 0.36 | 144 | – | –
C/C=C(/C)CNC(=O)[C@H]1N(C(=O)[C@@H](O)[C@H](Cc2ccccc2)NC(=O)c2cccc(O)c2C)CSC1(C)C [Example A34, (R)-3-((2S,3S)-2-Hydroxy-3-{[1-(3-hydroxy-2-methyl-phenyl)-methanoyl]-amino}-4-phenyl-butanoyl)-5,5-dimethyl-thiazolidine-4-carboxylic acid ((Z)-2-methyl-but-2-enyl)-amide] | – | – | < 0.1 | 36
Cc1c(O)cccc1C(=O)N[C@@H](Cc1ccccc1)[C@H](O)C(=O)N1CSC(C)(C)[C@H]1C(=O)NCc1ccc(C(F)(F)F)cc1 [Example A9, (R)-3-((2S,3S)-2-Hydroxy-3-{[1-(3-hydroxy-2-methyl-phenyl)-methanoyl]-amino}-4-phenyl-butanoyl)-5,5-dimethyl-thiazolidine-4-carboxylic acid 4-trifluoromethyl-benzylamide] | – | – | 4 | 565
CCCNC(=O)[C@H]1N(C(=O)[C@@H](O)[C@H](Cc2ccccc2)NC(=O)c2cccc(F)c2C)CSC1(C)C [Example B31, (R)-3-((2S,3S)-3-{[1-(3-Fluoro-2-methyl-phenyl)-methanoyl]-amino}-2-hydroxy-4-phenyl-butanoyl)-5,5-dimethyl-thiazolidine-4-carboxylic acid propylamide] | – | – | 1.5 | 1320
Cc1c(O)cccc1C(=O)N[C@@H](Cc1ccccc1)[C@H](O)C(=O)N1CSC(C)(C)[C@H]1C(=O)NCC(=O)c1ccccc1 [Example A10, (R)-3-((2S,3S)-2-Hydroxy-3-{[1-(3-hydroxy-2-methyl-phenyl)-methanoyl]-amino}-4-phenyl-butanoyl)-5,5-dimethyl-thiazolidine-4-carboxylic acid (2-oxo-2-phenyl-ethyl)-amide] | – | – | 51 | > 1000
Cc1ccccc1CNC(=O)C1N(C(=O)[C@@H](O)[C@H](Cc2ccccc2)NC(=O)c2cccnc2C)CSC1(C)C (stereo partly drawn) [Example B44, N-{(1S,2S)-1-Benzyl-3-[5,5-dimethyl-4-(2-methyl-benzylcarbamoyl)-thiazolidin-3-yl]-2-hydroxy-3-oxo-propyl}-2-methyl-nicotinamide] | – | – | 0.76 | 629
Cc1c(O)cccc1C(=O)N[C@@H](Cc1ccccc1)[C@H](O)C(=O)N1CSC(C)(C)[C@H]1C(=O)NCc1cccc(OCC(C)C)c1 | 1.1 | 1110 | – | –
C/C=C\CNC(=O)[C@H]1N(C(=O)[C@@H](O)[C@H](Cc2ccccc2)NC(=O)c2cccc(O)c2C)CSC1(C)C [Example A31, (R)-3-((2S,3S)-2-Hydroxy-3-{[1-(3-hydroxy-2-methyl-phenyl)-methanoyl]-amino}-4-phenyl-butanoyl)-5,5-dimethyl-thiazolidine-4-carboxylic acid (Z)-but-2-enylamide] | – | – | < 0.1 | 41
C=CCNC(=O)[C@H]1N(C(=O)[C@@H](O)[C@H](Cc2ccccc2)NC(=O)c2cccc(F)c2C)CSC1(C)C [Example B33, (R)-3-((2S,3S)-3-{[1-(3-Fluoro-2-methyl-phenyl)-methanoyl]-amino}-2-hydroxy-4-phenyl-butanoyl)-5,5-dimethyl-thiazolidine-4-carboxylic acid allylamide] | – | – | 1.2 | 1290
CC(=O)Nc1cccc(CNC(=O)[C@H]2N(C(=O)[C@@H](O)[C@H](Cc3ccccc3)NC(=O)c3cccc(O)c3C)CSC2(C)C)c1 [Example A33, (R)-3-((2S,3S)-2-Hydroxy-3-{[1-(3-hydroxy-2-methyl-phenyl)-methanoyl]-amino}-4-phenyl-butanoyl)-5,5-dimethyl-thiazolidine-4-carboxylic acid 3-acetylamino-benzylamide] | – | – | < 0.1 | 577
Cc1noc(C)c1C(=O)NC(Cc1ccccc1)C(O)C(=O)N1CSC(C)(C)C1C(=O)NCc1c(F)cccc1F (stereo not shown) [Example B25, 3,5-Dimethyl-isoxazole-4-carboxylic acid {1-benzyl-3-[4-(2,6-difluoro-benzylcarbamyl)-5,5-dimethyl-thiazolidin-3-yl]-2-hydroxy-3-oxo-propyl}-amide] | – | – | 2.7 | 1790
Cc1ccccc1CNC(=O)[C@H]1N(C(=O)[C@@H](O)[C@H](Cc2ccccc2)NC(=O)c2cccc(O)n2)CSC1(C)C [Example B48] | – | – | 12 | > 3200
Cc1c(O)cccc1C(=O)N[C@@H](Cc1ccccc1)[C@H](O)C(=O)N1CSC(C)(C)[C@H]1C(=O)c1ccccc1 | 2.5 | 1220 | – | –

From patent US7169932B2 (priority 2001, dated 2007)
